System: 475296-252-R-J1-PDC spheroid viability
Experiment: Anticancer human tumor 475296-252-R-J1-PDC patient-derived rectal carcinoma cell line growth inhibition [PI3K]
Details: spheroids with HUVEC and MSC; for IC50: curve of first compound; for viability, T/C: stronger effect = lower value
How it was run: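 Viability of mixed-cell spheroids was determined after exposure to pairwise combinations, one partner being inavolisib, alpelisib, duvelisib or copanlisib. Highest tested concentration matched clinical Cmax where known and 10 microM where not, descending in half-log steps.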

[1] = second compound 0.00316 µM, first compound 0.000316 µM
[2] = second compound 0.00316 µM, first compound 0.001 µM
[3] = second compound 0.00316 µM, first compound 0.00316 µM
[4] = second compound 0.00316 µM, first compound 0.01 µM
[5] = second compound 0.00316 µM, first compound 0.0316 µM
[6] = second compound 0.00316 µM, first compound 0.1 µM
[7] = second compound 0.01 µM, first compound 0.000316 µM
[8] = second compound 0.01 µM, first compound 0.001 µM
[9] = second compound 0.01 µM, first compound 0.00316 µM
[10] = second compound 0.01 µM, first compound 0.01 µM
[11] = second compound 0.01 µM, first compound 0.0316 µM
[12] = second compound 0.01 µM, first compound 0.1 µM
[13] = second compound 0.0316 µM, first compound 0.000316 µM
[14] = second compound 0.0316 µM, first compound 0.001 µM
[15] = second compound 0.0316 µM, first compound 0.00316 µM
[16] = second compound 0.0316 µM, first compound 0.01 µM
[17] = second compound 0.0316 µM, first compound 0.0316 µM
[18] = second compound 0.0316 µM, first compound 0.1 µM
[19] = second compound 0.1 µM, first compound 0.000316 µM
[20] = second compound 0.1 µM, first compound 0.001 µM
[21] = second compound 0.1 µM, first compound 0.00316 µM
[22] = second compound 0.1 µM, first compound 0.01 µM
[23] = second compound 0.1 µM, first compound 0.0316 µM
[24] = second compound 0.1 µM, first compound 0.1 µM
[25] = second compound 0.316 µM, first compound 0.000316 µM
[26] = second compound 0.316 µM, first compound 0.001 µM
[27] = second compound 0.316 µM, first compound 0.00316 µM
[28] = second compound 0.316 µM, first compound 0.01 µM
[29] = second compound 0.316 µM, first compound 0.0316 µM
[30] = second compound 0.316 µM, first compound 0.1 µM
[31] = second compound 1 µM, first compound 0.000316 µM
[32] = second compound 1 µM, first compound 0.001 µM
[33] = second compound 1 µM, first compound 0.00316 µM
[34] = second compound 1 µM, first compound 0.01 µM
[35] = second compound 1 µM, first compound 0.0316 µM
[36] = second compound 1 µM, first compound 0.1 µM
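Note: spheroids exposed to agents for seven days before readout.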

CC(=O)c1c(C)c2cnc(Nc3ccc(N4CCNCC4)cn3)nc2n(C2CCCC2)c1=O + COc1c(OCCCN2CCOCC2)ccc2c3n(c(=NC(=O)c4cnc(N)nc4)nc12)CCN3
IC50 (second compound 0.00316 µM): > 100 nM
IC50 (second compound 0.01 µM): > 100 nM
IC50 (second compound 0.0316 µM): > 100 nM
IC50 (second compound 0.1 µM): > 100 nM
IC50 (second compound 0.316 µM): > 100 nM
IC50 (second compound 1 µM): > 100 nM
viability, T/C [1]: 108%
viability, T/C [2]: 101%
viability, T/C [3]: 104%
viability, T/C [4]: 119%
viability, T/C [5]: 113%
viability, T/C [6]: 108%
viability, T/C [7]: 97.4%
viability, T/C [8]: 99.5%
viability, T/C [9]: 95.9%
viability, T/C [10]: 99.5%
viability, T/C [11]: 98.5%
viability, T/C [12]: 99.8%
viability, T/C [13]: 96.2%
viability, T/C [14]: 86%
viability, T/C [15]: 90.5%
viability, T/C [16]: 98.7%
viability, T/C [17]: 105%
viability, T/C [18]: 99.8%
viability, T/C [19]: 77.8%
viability, T/C [20]: 82.3%
viability, T/C [21]: 97.6%
viability, T/C [22]: 77.8%
viability, T/C [23]: 83.9%
viability, T/C [24]: 84.1%
viability, T/C [25]: 71.6%
viability, T/C [26]: 75.5%
viability, T/C [27]: 70.7%
viability, T/C [28]: 72.6%
viability, T/C [29]: 82.8%
viability, T/C [30]: 84.6%
viability, T/C [31]: 60.7%
viability, T/C [32]: 56.7%
viability, T/C [33]: 69.3%
viability, T/C [34]: 61.5%
viability, T/C [35]: 59.7%
viability, T/C [36]: 52.4%

CC(C)n1nc(-c2ccc3oc(N)nc3c2)c2c(N)ncnc21 + COc1c(OCCCN2CCOCC2)ccc2c3n(c(=NC(=O)c4cnc(N)nc4)nc12)CCN3
IC50 (second compound 0.00316 µM): > 100 nM
IC50 (second compound 0.01 µM): > 100 nM
IC50 (second compound 0.0316 µM): > 100 nM
IC50 (second compound 0.1 µM): 98.7 nM
IC50 (second compound 0.316 µM): 49 nM
IC50 (second compound 1 µM): 34.4 nM
viability, T/C [1]: 96.8%
viability, T/C [2]: 99.5%
viability, T/C [3]: 84.6%
viability, T/C [4]: 73.2%
viability, T/C [5]: 81.4%
viability, T/C [6]: 56.9%
viability, T/C [7]: 96.5%
viability, T/C [8]: 90.7%
viability, T/C [9]: 97.4%
viability, T/C [10]: 92%
viability, T/C [11]: 75.2%
viability, T/C [12]: 64.3%
viability, T/C [13]: 91.4%
viability, T/C [14]: 85.8%
viability, T/C [15]: 101%
viability, T/C [16]: 82%
viability, T/C [17]: 81.9%
viability, T/C [18]: 51.7%
viability, T/C [19]: 95.2%
viability, T/C [20]: 84.8%
viability, T/C [21]: 78.8%
viability, T/C [22]: 79.6%
viability, T/C [23]: 68.8%
viability, T/C [24]: 48.3%
viability, T/C [25]: 71.7%
viability, T/C [26]: 67.6%
viability, T/C [27]: 68.2%
viability, T/C [28]: 73%
viability, T/C [29]: 56.5%
viability, T/C [30]: 35.2%
viability, T/C [31]: 60.8%
viability, T/C [32]: 56.7%
viability, T/C [33]: 59.5%
viability, T/C [34]: 55.6%
viability, T/C [35]: 51.6%
viability, T/C [36]: 35.6%

CCCS(=O)(=O)Nc1ccc(F)c(C(=O)c2c[nH]c3ncc(-c4ccc(Cl)cc4)cc23)c1F + COc1c(OCCCN2CCOCC2)ccc2c3n(c(=NC(=O)c4cnc(N)nc4)nc12)CCN3
IC50 (second compound 0.00316 µM): > 10000 nM
IC50 (second compound 0.01 µM): > 10000 nM
IC50 (second compound 0.0316 µM): > 10000 nM
IC50 (second compound 0.1 µM): > 10000 nM
IC50 (second compound 0.316 µM): > 10000 nM
IC50 (second compound 1 µM): > 10000 nM
viability, T/C [5]: 102%
viability, T/C [6]: 85.2%
viability, T/C (second compound 0.00316 µM, first compound 0.316 µM): 98.7%
viability, T/C (second compound 0.00316 µM, first compound 1 µM): 103%
viability, T/C (second compound 0.00316 µM, first compound 3.16 µM): 98.4%
viability, T/C (second compound 0.00316 µM, first compound 10 µM): 105%
viability, T/C [11]: 94%
viability, T/C [12]: 99.5%
viability, T/C (second compound 0.01 µM, first compound 0.316 µM): 87.7%
viability, T/C (second compound 0.01 µM, first compound 1 µM): 86.9%
viability, T/C (second compound 0.01 µM, first compound 3.16 µM): 94.2%
viability, T/C (second compound 0.01 µM, first compound 10 µM): 100%
viability, T/C [17]: 91.9%
viability, T/C [18]: 91.1%
viability, T/C (second compound 0.0316 µM, first compound 0.316 µM): 93.8%
viability, T/C (second compound 0.0316 µM, first compound 1 µM): 94.8%
viability, T/C (second compound 0.0316 µM, first compound 3.16 µM): 83.2%
viability, T/C (second compound 0.0316 µM, first compound 10 µM): 87.4%
viability, T/C [23]: 83%
viability, T/C [24]: 80%
viability, T/C (second compound 0.1 µM, first compound 0.316 µM): 84.5%
viability, T/C (second compound 0.1 µM, first compound 1 µM): 78.8%
viability, T/C (second compound 0.1 µM, first compound 3.16 µM): 66.4%
viability, T/C (second compound 0.1 µM, first compound 10 µM): 71.3%
viability, T/C [29]: 67.6%
viability, T/C [30]: 69.8%
viability, T/C (second compound 0.316 µM, first compound 0.316 µM): 64.9%
viability, T/C (second compound 0.316 µM, first compound 1 µM): 70.2%
viability, T/C (second compound 0.316 µM, first compound 3.16 µM): 57.5%
viability, T/C (second compound 0.316 µM, first compound 10 µM): 64.6%
viability, T/C [35]: 62.5%
viability, T/C [36]: 64.1%
viability, T/C (second compound 1 µM, first compound 0.316 µM): 79.8%
viability, T/C (second compound 1 µM, first compound 1 µM): 57.9%
viability, T/C (second compound 1 µM, first compound 3.16 µM): 73.3%
viability, T/C (second compound 1 µM, first compound 10 µM): 58.1%

Source: PubChem BioAssay AID1963980 (Molecular Pharmacology Branch, DTP, NCI, 2024)
